Reference: US20260007599A1, “TICAGRELOR IV FORMULATIONS FOR USE IN THE TREATMENT OF GRAM-POSITIVE BACTEREMIA” (Hyloris Developments SA, priority 2023, published 2026)

Assay: Bulk hold study, ticagrelor 8 mg/ml in HPβCD 30% w/w, phosphate buffer pH 7.5
Format: physicochemical
Protocol: To investigate the impact of temperature and hold time, a new composition was prepared as per below Table 19. In first step a phosphate buffer at pH 7.5 was prepared and the buffered solution was heated to 40° C.-45° C. HPβCD was added to the buffered solution under continuous mixing. […] It usually took 30 mins to 4 hours depending on batch size. Then this solution was filtered through a 0.22-micron filter and packed in suitable clear or amber colored glass vials.

[1] = bulk hold at 45° C. in glass vials, T = 1 h
[2] = bulk hold at 45° C. in glass vials, T = 110 h
[3] = bulk solution in sealed vials, T = 1 M, 25° C.
[4] = bulk solution in sealed vials, T = 1 M, 40° C.

CCCSc1nc(N[C@@H]2C[C@H]2c2ccc(F)c(F)c2)c2nnn([C@@H]3C[C@H](OCCO)[C@@H](O)[C@H]3O)c2n1 [ticagrelor, (1S,2S,3R,5S)-3-{7-[(1R,2S)-2-(3,4-difluorophenyl)cyclopropylamino]5-(propylthio)-3H-(1,2,3)triazolo (4,5-D)pyrimidin-3-yl}-5-(2 hydroxyethoxy) cyclopentane-1,2-diol]
Acetal impurity, average content (bulk hold at 30° C., T0): 0.04%
Amine impurity, average content (bulk hold at 30° C., T0): 0.06%
Assay ticagrelor (bulk hold at 30° C., T0): 105.60%
Regiomer impurity, average content (bulk hold at 30° C., T0): 0.00%
Sum impurities >0.05 (bulk hold at 30° C., T0): 0.10%
Total impurities (bulk hold at 30° C., T0): 0.21%
Triol Impurity, average content (bulk hold at 30° C., T0): 0.05%
Acetal impurity, average content (bulk hold at 30° C., T4 W): 0.04%
Amine impurity, average content (bulk hold at 30° C., T4 W): 0.06%
Assay ticagrelor (bulk hold at 30° C., T4 W): 106.14%
Regiomer impurity, average content (bulk hold at 30° C., T4 W): 0.00%
Sum impurities >0.05 (bulk hold at 30° C., T4 W): 0.06%
Total impurities (bulk hold at 30° C., T4 W): 0.21%
Triol Impurity, average content (bulk hold at 30° C., T4 W): 0.04%
Acetal impurity, average content [1]: 0.04%
Amine impurity, average content [1]: 0.05%
Assay ticagrelor [1]: 107.87%
Impurity at relative retention time 1.33, average content [1]: 0.07%
Sum impurities >0.05 [1]: 0.12%
Total impurities [1]: 0.20%
Triol Impurity, average content [1]: 0.04%
Acetal impurity, average content [2]: 0.04%
Amine impurity, average content [2]: 0.07%
Assay ticagrelor [2]: 109.10%
Impurity at relative retention time 1.33, average content [2]: 0.03%
Sum impurities >0.05 [2]: 0.11%
Total impurities [2]: 0.28%
Triol Impurity, average content [2]: 0.05%
Acetal impurity, average content [3]: 0.03%
Amine impurity, average content [3]: 0.06%
Assay ticagrelor [3]: 107.22%
Impurity at relative retention time 1.03, average content [3]: 0.02%
Impurity at relative retention time 1.33, average content [3]: 0.03%
Regiomer impurity, average content [3]: 0.03%
Sum impurities >0.05 [3]: 0.06%
Total impurities [3]: 0.23%
Triol Impurity, average content [3]: 0.01%
Acetal impurity, average content [4]: 0.00%
Amine impurity, average content [4]: 0.06%
Assay ticagrelor [4]: 105.16%
Impurity at relative retention time 1.03, average content [4]: 0.02%
Impurity at relative retention time 1.33, average content [4]: 0.08%
Regiomer impurity, average content [4]: 0.08%
Sum impurities >0.05 [4]: 0.21%
Total impurities [4]: 0.28%
Triol Impurity, average content [4]: 0.00%
